Reference: patent publication US20100215588A1, “THERAPEUTIC DELIVERY OF INHIBITORY NUCLEIC ACID MOLECULES TO THE RESPIRATORY SYSTEM” (priority 2007, published 2010)

Columns and labels:
[1] = tested on: A549 lung tumors; assay: A549 lung tumor growth after inhaled Nrf2 siRNA alone or with carboplatin; format: in vivo, SCID-Beige mice; conditions: lung tumor weights; siRNA 100 μg/dose by nebulizer three times a week for 4 weeks; carboplatin 30 mg/kg i.p. twice/week
Experimental: (§1) Tumor Xenografts: A549 cells (5×10^6) were injected into the hind leg of male athymic nude mice and the tumor was measured weekly. The tumor volumes were measured using the following formula: [length (mm)×width (mm)×width (mm)×0.52]. In the lung metastasis experiments, 2×10^6 A549-C8-luc cells were injected into SCID-Beige mice (Charles River, Mass.) intravenously.
(§2) For in vivo experiments, all siRNA compounds were chemically synthesized being stabilized by alternating 2-O′-Me modifications on both strands. The sequence of siRNA targeting human Nrf2 used for in vivo experiments is 5′-UCCCGUUUGUAGAUGACAA-3′ (sense) and 5′-UUGUCAUCUACAAACGGGA-3′ (antisense). The sequence of control siRNA targeting GFP is 5′-[…]-3′ (sense) and 5′-[…]-3′ (antisense).
For aerosol delivery of Nrf2 or GFP siRNA into lung tumors, 100 μg of siRNA duplex diluted in PBS was aerosolized using a nebulizer. Mice were given three dose of siRNA (100 μg/dose) every week, for 4 weeks, using a nebulizer. Intraperitoneal injections of carboplatin were given at a dose of 30 mg/kg body weight twice/week.
(§3) In Vivo Imaging: Animals inoculated with A549-C8-luc cells, which express a luciferase reporter gene, were anesthetized and injected intraperitoneally with 250 ul of luminescent substrate (15 mg/ml stock) D-Luciferin Firefly (Xenogen Cat# XR-1001). The animals were then imaged and analyzed by using the Xenogen IVIS Optical Imaging Device in the Johns Hopkins Oncology Center.
Statistical Analysis-Statistical comparisons were performed by Student's t-tests. A value of p<0.05 was considered statistically significant. Tumor weights and changes in tumor volume were summarized using descriptive statistics. Differences in tumor measures between treatment groups were examined using linear regression models with generalized estimating equations (GEE). The distributions of both tumor measurements were skewed, so log transformations were used.

[2] = Qualitative distribution of REDD14Cy3.5 siRNA in lung and kidney (fluorescence analysis); format: in vivo, cynomolgus monkeys
Experimental: On Day 15 of the study, two of the available animals (101 and 102) were administered a target dose of 35 mg/kg of a mixture of I5NP and REDD14Cy3.5 (fluorescence-labelled) siRNA via an oronasal mask as a nebulized aerosol generated by the Aeroneb device. A 2.0 L/min dilution airflow was used. The total dose of siRNA administered was calculated, based on the bodyweights and measured respiratory minute volumes of the animals, and on the achieved output of the Aeroneb device using the formulation concentration of 40 mg/mL of siRNA. The administered dose was adjusted by changing the exposure times for the animals
At the time of necropsy following Treatment 2, the lungs, bronchi and trachea of animal 102 were removed from the animal. The lungs were perfused with 4% paraformaldehyde, introduced using a syringe, via the trachea and/or bronchus and stored in this fixative at ambient temperature for a period of approximately 21 hours. Following this, as much as possible of the original fixative fluid was withdrawn by syringe via the trachea/bronchus and replaced with 0.2% paraformaldehyde. The fixed lungs were analyzed for fluorescence distribution.
At the time of necropsy following Treatment 2, the right kidney of animal 102 was removed from the animal. The kidney was dissected into quarters by making one longitudinal and one transverse cut, each to pass through the hilus, and then immersed in 4% paraformaldehyde and refrigerated for approximately 21 hours. Following this, the fixing solution was changed to 0.2% paraformaldehyde and the kidney was analyzed for fluorescence distribution.
Following Treatment 2, lung and kidney samples from animal 102 were analyzed for distribution of fluorescence (from REDD14Cy3.5 siRNA). The results were considered to be qualitative.

[3] = tested on: RTP801; assay: Short-term (7 day) cigarette smoking model, intralung delivery of RTP801 siRNA; format: in vivo, mouse (C57BL6)
Experimental: CS-induced inflammation was induced by 7 day smoking in 2 groups of C57BL6 mice, 10 mice per group. Group 1: CS+delivery of control siRNA (REDD8) siRNA; Group 2: CS+RTP801 siRNA (REDD14). Control groups of mice were instilled with either type of siRNA but kept in room air conditions. The animals were evaluated as in the above experiment with the Knock-Out mice.
Exposure was carried out (7 h/day, 7 days/week) by burning 2R4F reference cigarettes (2.45 mg nicotine per cigarette; purchased from the Tobacco Research Institute, University of Kentucky, Lexington, Ky., USA) using a smoking machine (Model TE-10, Teague Enterprises, Davis, Calif., USA). Each smoldering cigarette was puffed for 2 s, once every minute for a total of eight puffs, at a flow rate of 1.05 L/min, to provide a standard puff of 35 cm^3. The smoke machine was adjusted to produce a mixture of sidestream smoke (89%) and mainstream smoke (11%) by burning five cigarettes at one time. Chamber atmosphere was monitored for total suspended particulates and carbon monoxide, with concentrations of 90 mg/m3 and 350 ppm, respectively.
Following exposure to CS or instillation of RTP801 expressing plasmid, the mice were anesthetized with sodium pentobarbital. […] The total number of cells in the lavage fluid was determined, and 2×10^4 cells were cytocentrifuged (Shandon Southern Products, Pittsburgh, Pa., USA) onto glass slides and stained with Wright-Giemsa stain. […]
Immunohistochemical staining of active caspase-3 assay was performed using anti-active caspase-3 antibody and the active caspase-3-positive cells were counted with a macro, using Image Pro Plus program. […]
The activity of caspase-3 activity was measured in lung tissue extracts using a fluorometric assay according to the manufacturer's instructions. […] After removal of nuclei and cellular debris, the supernatant (300 μg protein) was then incubated with the pro-fluorescent substrate at room temperature for 1 h and the fluorescence intensity was measured utilizing a Typhoon phosphoimager (Amersham Biosciences, Inc., Piscataway, N.J., USA). […]

[4] = tested on: Nrf2; assay: ARE-Luc Nrf2-dependent reporter activity in orthotopic lung tumors, in vivo imaging; parameters: species or system SCID-Beige mice; conditions: siRNA by nebulizer; mice with A549-C8-luc lung tumors; FIG. 5
Experimental: as §1, §2
For aerosol delivery of Nrf2 or GFP siRNA into lung tumors, 100 μg of siRNA duplex diluted in PBS was aerosolized using a nebulizer. Mice were given three dose of siRNA (100 μg/dose) every week, for 4 weeks, using a nebulizer. […]
as §3

[5] = Treatment 2, animal 102, approximately 30 minutes post-end of dosing, qualitative

Q: For “GFP siRNA: control siRNA targeting GFP; sense 5′-GGCUACGUCCAGGAGCGCACC-3′, antisense 5′-GGUGCGCUCCUGGACGUAGCC-3′ (alternating 2'-O-methyl on both strands, starting position not given here)”, which “Mean (SD) tumor weight” value [1] is on record?
A: Its value is 710 (167.93) mg.

Q: For “REDD14Cy3.5: fluorescent-labelled (Cy3.5) REDD14, RTP801 inhibiting siRNA; sense GUGCCAACCUGAUGCAGCU, antisense AGCUGCAUCAGGUUGGCAC (Cy3.5 fluorescent label, position and strand not given here)”, which “fluorescent label in lungs” value [2, 5] is on record?
A: Its value is “detected in all sections taken from all lobes of the lungs”.

Q: And the “fluorescent label in right kidney” value [2, 5]?
A: Its value is “little label detected in the right kidney”.

Q: And the “distribution in lung, I5NP (hybridization) and REDD14Cy3.5 (fluorescence) compared” value ([2]; after oronasal inhalation)?
A: The value was “little difference in the distribution of the two test articles in lung”.

Q: For “REDD14: exemplary siRNA in aqueous solution directed against gene RTP801; sense GUGCCAACCUGAUGCAGCU, antisense AGCUGCAUCAGGUUGGCAC (chemistry not fully specified)”, which “RTP801 expression in the lungs” value ([3]; 50 μg siRNA instilled intranasally, FIG. 3b) is on record?
A: The value was “reduction of RTP801 expression in the lungs”.

Q: What about the “cigarette smoking induced apoptosis of lung septal cells (activated caspase staining, caspase 3 immunoblot)” value ([3]; 1 week of cigarette smoking, FIG. 3c) of the same compound?
A: Its value is “partially protected from cigarette smoking induced apoptosis of lung septal cells”.

Q: And the “cigarette smoking induced inflammation (number of inflammatory bronchoalveolar lavage cells)” value ([3]; 1 week of cigarette smoking, versus control siRNA REDD8, FIG. 3a)?
A: The value was “partially protected from cigarette smoking induced inflammation”.

Q: For “Nrf2 siRNA: siRNA targeting human Nrf2, alternating 2-O′-Me; sense 5′-UCCCGUUUGUAGAUGACAA-3′, antisense 5′-UUGUCAUCUACAAACGGGA-3′ (alternating 2'-O-methyl on both strands, starting position not given here)”, which “Nrf2 reporter activity in vivo” value [4] is on record?
A: The value was “inhibited Nrf2 reporter activity in vivo”.

Q: What about the “Mean (SD) tumor weight” value [1] of the same compound?
A: The value was 802 (172.25) mg.

Q: For `N.N.O=C([O-])C1(C(=O)[O-])CCC1.[Pt+2]` [Vehicle siRNA + carboplatin, carboplatin], which “Mean (SD) tumor weight” value [1] is on record?
A: Its value is 495 (49.5) mg.
